Values quoted from earlier work, collected in US7044945B2, “Prevention of regression in thermal ciliary muscle tendinoplasty” (priority 2001, dated 2006).

What was measured:
[1] = in mammals

Compound | tensile strength of the wounds (healing wound; compared with controls) | thermal shrinkage temperature of individual collagen fibers from the wounds (healing wound; treated wounds compared to comparable controls) | toxicity [1] | solubility in water and alcohol
CCN=C=NCCCN(C)C.Cl [1-ethyl-1-3 (3-dimethylaminopropyl) carbodiimide hydrochloride] | sizable increase | increased | – | –
OCC(O)CO [glycerol] | – | – | very low toxicity | completely soluble
